According to patent US20120135094A1, “OREGANO AND MINT ANTI-INFLAMMATORY COMPOSITIONS AND METHODS” (RUTGERS, THE STATE UNIVERSITY OF NEW JERSEY, priority 2009, published 2012):

What was measured:
Type in all cases: cell-based, murine
[1] = tested on: iNOS protein in RAW 264.7 cells; test: Western Blotting of LPS-induced iNOS protein level; conditions: test compounds 10 and 20 μg/mL, 24 h
Description: (§1) FIG. 5 illustrates effects of rosmarinic acid (RosA), oleanolic acid (OA), ursolic acid (UA) and indomethacin on LPS-induced iNOS and COX-2 protein levels in RAW 264.7 cells. The cells were treated with test compounds (10 and 20 μg/mL) for 24 h. Equal amounts of total proteins (50 μg) were subjected to 10% SDS-PAGE. The expression of iNOS, COX-2 and β-actin protein was detected by Western Blot using specific antibodies. Quantification of iNOS and COX-2 protein expression was performed by densitometric analysis of the immunoblot. The values below the figure represent the relative intensity in protein expression of the bands normalized to β-actin.
(§2) RAW 264.7 cells, derived from murine macrophages, were procured from the American Type Culture Collection (Rockville, Md.). The cells were cultured in RPMI-1640 (without phenol red) supplemented with 10% endotoxin-free, heat-inactivated fetal calf serum (GIBCO, Grand Island, N.Y.), 100 units/mL penicillin, and […] streptomycin. When the RAW 264.7 cells reached a density of 2-3×10^6 cells/mL, they were activated by incubation in the medium containing E. coli LPS (lipopolysaccharide, 100 ng/mL). Various concentrations of test compounds dissolved in DMSO (dimethylsulfoxide) were combined together with LPS. The cells were treated with 0.05% DMSO as vehicle control.
(§3) The total proteins, isolated from cells after treatment with test compounds for 24 h, were extracted via addition of 200 μL of gold lysis buffer (50 mM Tris-HCl, pH 7.4; 1 mM NaF; 150 mM NaCl; 1 mM EGTA; 1 mM phenylmethanesulfonyl fluoride; 1% NP-40; and 10 μg/mL leupeptin) to the cell pellets on ice for 30 min, followed by centrifugation for 30 min at 4° C. The cytosolic fraction (supernatant) proteins were measured by Bio-Rad Protein Assay (Bio-Rad Laboratories, Munich, Germany). The samples (50 μg of proteins) were mixed with 5-fold sample buffer containing 0.3 M Tris-HCl (pH 6.8), 25% 2-mercaptoethanol, 12% sodium dodecyl sulfate (SDS), 25 mM EDTA, 20% glycerol, and 0.1% bromophenol blue. […]

[2] = tested on: COX-2 protein in RAW 264.7 cells; test: Western Blotting of LPS-induced COX-2 protein level; conditions: test compounds 10 and 20 μg/mL, 24 h
Description: as §1, §2, §3

[3] = tested on: LPS-induced nitrite production in RAW 264.7 macrophages; test: LPS-induced nitrite production assay (Griess reaction); conditions: concentration range of 10-100 μg/mL, dose-dependently; LPS 100 ng/mL, 24 h
Description: FIG. 4 illustrates anti-inflammatory effect of rosmarinic acid (RosA), ursolic acid (UA) and oleanolic acid (OA) on LPS-induced nitrite production in RAW 264.7 macrophages. The cells were treated with 100 ng/mL of LPS only or with different concentrations of test compounds for 24 h. At the end of incubation time, 100 μL of the culture medium was collected for nitrite assay. The values are expressed as means±standard error of triplicate tests.
as §2, with “Various concentrations of test compounds dissolved in DMSO (dimethylsulfoxide) were combined together with LPS. The cells were treated with 0.05% DMSO as vehicle control.” left out
The RAW 264.7 cells were treated with various compounds and LPS or LPS only. The supernatants were harvested and the amount of nitrite, an indicator of NO synthesis, was measured using the Griess reaction. […] After incubation at room temperature for 10 min, absorbance at 570 nm was measured with the ELISA reader (Thermo Labsystems, Multiskan Ascent, Finland).

| Structure (SMILES) | iNOS protein expression [1] | COX-2 protein expression [2] | suppression of NO generation [3] |
| --- | --- | --- | --- |
| CC1(C)CC[C@]2(C(=O)O)CC[C@]3(C)C(=CC[C@@H]4[C@@]5(C)CC[C@H](O)C(C)(C)[C@@H]5CC[C@]43C)[C@@H]2C1 [oleanolic acid] | reduced expression of iNOS protein | suppressed COX-2 protein expression | – |
| O=C(/C=C/c1ccc(O)c(O)c1)O[C@H](Cc1ccc(O)c(O)c1)C(=O)O [rosmarinic acid] | reduced expression of iNOS protein | suppressed COX-2 protein expression | 19-100% |
| C[C@H]1[C@H](C)CC[C@]2(C(=O)O)CC[C@]3(C)C(=CC[C@@H]4[C@@]5(C)CC[C@H](O)C(C)(C)[C@@H]5CC[C@]43C)[C@H]12 [ursolic acid] | reduced expression of iNOS protein | suppressed COX-2 protein expression | – |
